Experimental data reported in patent US20100272706A1, “ANTIVIRALS” (priority 2007, published 2010).
Where two headings read alike, the source gives them in different places.

Tests used:
Assay type in all cases: cell-based
[1] = test system: vaccinia virus mature virions (EGFP-MV)
[2] = test system: MV-induced blebbing of HeLa cells; conditions: microscopy
[3] = test system: vaccinia virus mature virions (mYFP-MV)
[4] = test system: vaccinia virus mature virions (MV entry)
[5] = test system: vaccinia virus mature virions
[6] = test system: vaccinia virus mature virions (mYFP-MV); remark: listed apart in the source

O=c1c(-c2ccc(O)cc2)coc2cc(O)cc(O)c12 [genistein]
inhibition of viral infection [1]: up to 82%

COC[C@H]1OC(=O)c2coc3c2[C@@]1(C)C1=C(C3=O)[C@@H]2CCC(=O)[C@@]2(C)C[C@H]1OC(C)=O [wortmannin]
inhibition of viral infection [1]: up to 63%

CCN(c1nc(N)c(C(=O)N=C(N)N)nc1Cl)C(C)C [EIPA, 5-N-ethyl-N-isopropyl-amiloride]
MV-induced bleb formation [2]: inhibited bleb-formation
inhibition of viral infection [1]: 90%
internalization of MV into FITC-dextran positive vacuoles [3]: prevented internalization

O=C(Nc1cccc(Nc2cc(Nc3cccc(C(F)(F)F)c3)ncn2)c1)C1CC1 [EGFR inhibitor 324674]
MV entry [4]: effectively blocks MV entry

phosphatidylserine [PS]
fraction of original infectivity and plaque formation rescued [5]: 90%

ANX5
infectivity [1]: no effect
inhibition of infection by masking of viral PS [1]: 95%
MV binding to cells [6]: without affecting MV binding
viral binding [6]: no effect

Cc1ccc2c(c1)C(=O)C1(O)CCN(c3ccccc3)C1=N2 (centres unmarked) [Blebbistatin]
MV-induced bleb formation [2]: prevented formation of the blebs
MV-induced bleb formation ([2]; listed as blebbistatin): inhibited bleb-formation
inhibition of viral infection [1]: 62%
